Values joined by “and” are separate entries in the source; they are usually repeats but may differ in a detail not shown here. Equal values may be shown once.
Legend:
[1] = Photostability of a film of oily solution under an Oriel sun simulator, quantified by HPLC; type: physicochemical; settings: 5% by weight in Miglyol 812 oil; about 1 mg/cm^2 film; irradiated one hour, UVA=14.2 mW/cm^2, UVB=0.41 mW/cm^2; individual tests
Experimental: Compared photostabilities between a compound of the prior art and the compound according to the invention of Example 1:
The two products were dissolved at 5% by weight in Miglyol 812 oil. About 10 mg of oily solution are spread over 10 cm^2 onto the surface of a frosted-glass hollow disc; the amount is determined by weighing.
The films of oily solutions are irradiated for one hour using an Oriel sun simulator (UVA=14.2 mW/cm^2; UVB=0.41 mW/cm^2), and then extracted with 10 ml of ethanol containing 10% isopropanol and treated with ultrasound for 5 minutes. The quantifications of the products are performed by HPLC of the extracts.
HPLC conditions: column: UP5WOD-25QS, 250*4.6 mm, 5 μm, Interchrom; eluent: methanol (Comparative Example 1) and 96% methanol+4% water (Example 1); flow rate: 1 ml/minute; injected volume: 10 μl; detection: diode array; rt (minutes): 5.2 (Comparative Example 1) and 14.9 (Example 1).
The degrees of loss are determined by comparison of the amounts of product present in the irradiated samples and in the non-irradiated controls prepared simultaneously and treated in the same manner (average of 3 samples; S=surface area/mg solution): % loss=100*(S0-Sirr)/S0

UV absorption in ethanol = type: physicochemical

Row | % disappearance [1] | UV E1% (UV absorption in ethanol) | UV εmax (UV absorption in ethanol) [M⁻¹ cm⁻¹] | UV λmax (UV absorption in ethanol) [nm] | Structure (SMILES)
1 | 11% and 10% and 9% | – | – | – | CC(C)COC(=O)C(=Cc1ccc(Nc2nc(Nc3ccc(C=C(C(=O)OCC(C)C)C(=O)OCC(C)C)cc3)nc(Nc3ccc(C=C(C(=O)OCC(C)C)C(=O)OCC(C)C)cc3)n2)cc1)C(=O)OCC(C)C [Compound (prior art), 2,4,6-tris(Diisobutyl 4′-aminobenzalmalonate)-s-triazine, reference compound]
2 | 3% and 5% and 4% | 956 | 110000 | 356 | CC(C)(C)COC(=O)C(=Cc1ccc(Nc2nc(Nc3ccc(C=C(C(=O)OCC(C)(C)C)C(=O)OCC(C)(C)C)cc3)nc(Nc3ccc(C=C(C(=O)OCC(C)(C)C)C(=O)OCC(C)(C)C)cc3)n2)cc1)C(=O)OCC(C)(C)C [Example 1, 2,4,6-tris(dineopentyl 4′-aminobenzalmalonate)-s-triazine]
3 | – | 922 | 111000 | 353 | CC(C)CC(C)OC(=O)C(=Cc1ccc(Nc2nc(Nc3ccc(C=C(C(=O)OC(C)CC(C)C)C(=O)OC(C)CC(C)C)cc3)nc(Nc3ccc(C=C(C(=O)OC(C)CC(C)C)C(=O)OC(C)CC(C)C)cc3)n2)cc1)C(=O)OC(C)CC(C)C (centres unmarked) [Example 2, 2,4,6-tris(bis(1,3-dimethylbutyl) 4′-aminobenzalmalonate)-s-triazine]

From patent publication US7217821B2, “Photoprotective cosmetic compositions comprising para-aminobenzalmalonate-substituted s-triazine compounds” (L'Oreal, priority 2003, dated 2007)
